Tests used:
Type in all cases: binding
[1] = tested on: cyclic RGD peptide; experiment: STM break-junction measurement, Pd probe and substrate functionalized with cyclic RGD peptide; details: for event frequency, of all retractions: 10 nM protein, Vt=0.2V
Experimental: A Pd wire probe, etched to a sharp point and insulated to within a few hundred nm of its apex was used in an Agilent PicoSPM together with a Pd-coated substrate as described elsewhere. […] Probes and substrates were functionalized with cyclic RGD peptide (inset FIG. 14B) as described in Methods. Measurements were carried out in 1 mM phosphate buffer (pH=7.4) with the potential of the substrate controlled at a voltage Vr with respect to an Ag/AgCl reference. […] Integrin itself is electrochemically-inert, but the Pd surface has a rich electrochemistry. Cyclic voltammetry of a Pd surface functionalized with cyclic RGD peptide is shown in FIG. 14B, where a prominent cathodic peak (“HA”) is associated with hydrogen adsorption. […] In order to avoid both this cathodic peak and the onset of Pd oxidation at positive potentials, both electrodes were kept at potentials between 0 and 0.5V vs Ag/AgCl. The STM gap was set to an initial current of 4 pA ([…] conductance at Vt=0.2V, corresponding to a distance, Z0, of about 2 nm) and the probe was then slowly (0.17 nm/s) retracted. The tunnel current decayed rapidly (˜0.2 nm decay length—inset in FIG. 14E) in buffer alone. […] Many current points for αvβ3, exceed 0.1 nA (i.e., conductances >0.5 nS) at distances Z0+ΔZ>3 nm (FIG. 15A). Clearly these currents cannot arise from a tunneling process with β˜0.87 Å^−1 for which G0·e^−βx yields values smaller than 10^−16 S.
Table 1 summarizes the frequency with which these large current pulses are observed in STM measurements, showing also the effect of increasing bias. Large current events are barely seen below 0.1V, their frequency rising with increasing bias above this threshold. The experiments were repeated without a reference electrode, finding essentially identical results over the range of 0.1 to 0.5V (Table 1) presumably because the large-area substrate used in the STM experiments serves to stabilize surface potential somewhat.
The fraction in parenthesis corresponds to events that overflowed the current limit of the amplifier (11 nA). 0.5V bias approaches the potential for surface oxide formation of the Pd, but no significant oxidation currents were observed.
Functionalizing STM probes and substrates: The STM probes were etched from a 0.25 mm Pd wire (California Fine Wires) by an AC electrochemical etching method, and then insulated with high-density polyethylene, leaving an open apex of a few tens of nanometers in diameter. Before use, the probes were tested in 1 mM phosphate buffer (pH=7.4) at 0.5 V bias to ensure that the leakage current was <1 pA. For functionalization, the probe was gently cleaned using ethanol and water, respectively, and then dried with nitrogen flow. The probe was immersed in a 0.5 mg/mL peptide solution for ˜20 h. After that, the probe was taken out, rinsed with water, dried with nitrogen gas, and used immediately. Palladium substrates were prepared by depositing a 100 nm palladium film onto a 10 nm titanium adhesion layer coated onto a 750 μm thick silicon wafer using an electron-beam evaporator (Lesker PVD 75). The substrate was annealed with a hydrogen flame immediately before being functionalized by the same method as that for probe. Fourier transform infrared (FTIR) spectroscopy was used to characterize the functionalization. Pd substrates were also treated by UV- Ozone cleaner and H2 gas reduction (to remove PdO).
STM Measurements: Break junction measurements were carried out with a PicoSPM scanning probe microscope (Agilent Technologies). The Teflon liquid cells were cleaned in Piranha solution and then sonicated in Milli-Q water three times (Note that: the Piranha is highly corrosive and must be handled with extreme care). The current set point was 4 pA. Different sample bias was applied to the substrate as required. For better surface charge control, an Ag/AgCl with a salt bridge (10 mM KCl) was connected to the substrate. […]

[2] = tested on: cyclic RGD peptide; experiment: STM experiment, gold probe functionalized with RGD peptide over bare gold substrate; details: 100 nM protein, starting gap 2.7 nm
Excerpt: Accordingly, in some embodiments, functionalizing just one of a pair of electrodes generates a unique electrical recognition signal for a corresponding molecule(s). To do this, a scanning tunneling microscope (STM) was used (see STM, FIG. 5A), where a gold probe 51 was functionalized with the RGD peptide 53 via the chemical interaction between the cysteine residue and the gold. The probe was positioned at a set point bias (V) and current (I) such that the apex of the probe was held approximately 2.7 nm above a bare gold substrate, 52. As the probe was pulled away an extra distance ΔZ from the surface, a decaying current could be observed during some of the experiments (e.g., feature 57 in FIG. 5B). However, in the absence of the αVβ3 integrin, no other features were observed, even if fairly high concentrations (e.g., 100 nM) of a protein such as BSA were added to the solution in the STM. Once 100 nM αVβ3 integrin 56 was added to the solution, a new feature appeared as a current peak away from the origin 58 in FIG. 5B.
In contrast to conventional tunneling signals, these signals peak when the probe is some distance away from the surface, signifying that the probe has captured a conductive particle.

[3] = tested on: cyclic RGD peptide; experiment: Nanopore (approximately 12 nm) junction device functionalized with cyclic RGD peptide
Experimental: Accordingly, in some embodiments, the background signal corresponds to the number of molecules adsorbed on the electrodes. This can be substantiated by collecting signals from a device small enough to allow only one integrin molecule to be trapped. In such a device, experiments were performed where the electrode edges were exposed by drilling a nanopore of approximately 12 nm diameter through the junction device. The electrodes were functionalized again with the cyclic RGD peptide. […] However, when 1 nM αVβ3 integrin is added a signal is generated (FIG. 11). […] This is because there is room for only one molecule at a time in the device, and this confirms that, in some embodiments, the background current arises from adsorption of many molecules.

[4] = Bias 0.1 V, Reference Ag/AgCl (0V)
[5] = Bias 0.2 V, Reference Ag/AgCl (0V)
[6] = Bias 0.5 V, Reference Ag/AgCl (0V)
[7] = Bias 0.5 V, Reference None (substrate floating)
[8] = many current points, at distances Z0+ΔZ>3 nm

“αvβ3: ~200 kD αVβ3 extracelluar domain of human integrin, target protein bound by cyclic RGD peptide” was tested, and the “event frequency, of all retractions” value [1] was 25%, the “fraction of events that overflowed the current limit of the amplifier (11 nA)” value [1, 4] was 0 and the “fraction of retractions that showed large current events” value [1, 4] was 0.07. The “fraction of events that overflowed the current limit of the amplifier (11 nA)” value ([1]; Bias 0.1 V, Reference None) was 0, the “fraction of retractions that showed large current events” value ([1]; Bias 0.1 V, Reference None) was 0.06 and the “fraction of events that overflowed the current limit of the amplifier (11 nA)” value [1, 5] was 0.01. For the same substance, the “fraction of retractions that showed large current events” value [1, 5] was 0.32, the “fraction of events that overflowed the current limit of the amplifier (11 nA)” value ([1]; Bias 0.2 V, Reference None) was 0.03 and the “fraction of retractions that showed large current events” value ([1]; Bias 0.2 V, Reference None) was 0.26. For the same substance, the “fraction of events that overflowed the current limit of the amplifier (11 nA)” value [1, 6] was 0.2, the “fraction of retractions that showed large current events” value [1, 6] was 0.58 and the “fraction of events that overflowed the current limit of the amplifier (11 nA)” value [1, 7] was 0.09. For the same substance, the “fraction of retractions that showed large current events” value [1, 7] was 0.56, the conductance [1, 8] was > 0.5 nS and the peak current [1, 8] was “exceed 0.1 nA”. For the same substance, the “current peak features on probe withdrawal” value [2] was “many tens of picoamps” and the fluctuating current component ([3]; 1 nM) was “about 0.2 nA”.
For “α4β1: homologous, weakly-binding integrin protein used as a control”, the “event frequency, of all retractions” value [1] was 12%, the “fraction of retractions that showed large current events” value [1, 4] was 0.01 and the “fraction of retractions that showed large current events” value ([1]; Bias 0.1 V, Reference None) was 0. For the same substance, the “fraction of events that overflowed the current limit of the amplifier (11 nA)” value [1, 5] was 0, the “fraction of retractions that showed large current events” value [1, 5] was 0.15 and the “fraction of events that overflowed the current limit of the amplifier (11 nA)” value ([1]; Bias 0.2 V, Reference None) was 0. For the same substance, the “fraction of retractions that showed large current events” value ([1]; Bias 0.2 V, Reference None) was 0.12, the “fraction of events that overflowed the current limit of the amplifier (11 nA)” value [1, 6] was 0.01 and the “fraction of retractions that showed large current events” value [1, 6] was 0.3. The “fraction of events that overflowed the current limit of the amplifier (11 nA)” value [1, 7] was 0, the “fraction of retractions that showed large current events” value [1, 7] was 0.24 and the “signal in nanopore device” value ([3]; 1 nM solution) was “no signals are generated”.

Reference: patent US10422787B2, “System and method for single molecule detection” (ARIZONA BOARD OF REGENTS on behalf of ARIZONA STATE …, priority 2015, dated 2019)
